pIC50: −log10 of the molar value. Values joined by “and” are separate entries in the source; they are usually repeats but may differ in a detail not shown here. Equal values may be shown once. Positions of bridges follow the written chain, without caps; N, C: chain ends. No end group written: not given here.
Columns and labels:
mAb 2C7 [1] = assay: Inhibition ELISA: synthetic peptide inhibiting mAb 2C7 binding to LOS
Procedure: Peptides were diluted in blocking buffer (1% ovalbumin, 0.05% TWEEN-20™ (polysorbate 20), 0.5 M NaCl in PBS) to produce mixtures of varying concentrations (0.1, 0.5 and 1 mg/ml). […] Purified LOS prepared from gonococcal strain 15253 was used as a positive control. A non-reactive 15-mer peptide sequence generated by the above described random peptide library system was used as a negative control peptide [SEQ ID NO:9].

mAb 2C7 [2] = assay: Inhibition ELISA: linear peptide or MAPs inhibiting mAb 2C7 binding to LOS; conditions: for pIC50: mAb 2C7 stock 0.4 μg/ml, LOS of strain 15253 coated plates, read-out: half maximal inhibition (IC50) of mAb 2C7 binding to LOS
Procedure: (§1) Solid phase ELISA was performed to assess the binding of mAb 2C7 to multiple antigen peptides. For direct ELISA, Immulon 1 plates were coated overnight with multiple antigen peptides (1 μg/well) and reacted with varying concentration of mAb 2C7. For inhibition ELISA, plates were coated with purified LOS prepared from N. gonorrhoeae strain 15253 (80 μg/ml) at 37° C. for 3 h. Peptides (linear or MAPs) were diluted in blocking buffer (1% ovalbumin, 0.05% TWEEN-20™ (polysorbate 20), 0.5 M NaCl in PBS) to produce mixtures of varying concentrations. 50 μl-aliquots from each concentration were incubated with 50 μl of mAb 2C7 (stock concentration 0.4 μg/ml diluted in blocking buffer) at 37° C. for 1 h, then 100 μl of mixtures were loaded into microtiter plate wells. […] Purified LOS prepared from gonococcal strain 15253 was used as a positive control in inhibition ELISA.

mAb 2C7 [3] = assay: Direct ELISA: mAb 2C7 binding to multiple antigen peptides; conditions: plates coated with MAP 1 μg/well
Procedure: as §1

IgG anti-LOS antibody = IgG anti-LOS antibody response in immunized mice; format: in vivo
Procedure: FIGS. 8A-8D show octa-MAP1-induced IgG anti-LOS antibody responses in mice. (A) Eight mice received a dose of 50 μg of Octa-MAP1 emulsified in Freund's adjuvant on day 0 and again on day 21. (B) Four mice were immunized with purified LOS as a positive control. Mice were immunized with either Freund's adjuvant (C) or an unrelated octa-MAP control peptide (D) as negative controls.
In FIG. 8(A), eight mice received a dose of 50 μg of Octa-MAP1 emulsified in Freund's adjuvant on day 0 and again on day 21. […] In these mice, IgG anti-LOS titers increased minimally after the first immunization and rose after boosting.
IgG anti-LOS antibody responses for the responder mice only (from the experiments depicted in FIGS. 8A-8D) are shown in FIG. 10. Antibody response is defined as IgG anti-LOS (mean±SE) greater than 0.4 μg/ml (4 fold above baseline IgG anti-LOS levels).

IgM anti-LOS antibody = IgM anti-LOS antibody response in immunized mice; format: in vivo; conditions: responder mice only
[4] = test system: N. gonorrhoeae strain 15253 lgtG; assay: Complement-mediated bactericidal assay, strain 15253 lgtG mutant (2C7 epitope negative); format: cell-based, Neisseria gonorrhoeae; conditions: serum of single immunized mouse, 67% serum, 17% human complement
Procedure: (§2) A bactericidal assay was performed using (A) mAb 2C7 mice against strain 15253 (positive control) and strain 15253 lgtG (negative control) (4). 25 μg/ml of mAb 2C7 (100 μl in 150 μl of total volume of reaction mixture) mediated 100% killing of strain 15253, and no killing of strain 15253 lgtG. […] FIG. 12 controls included the Complement source without antibody (137.9%±1.0% survival (no killing) for strain 15253, and 132.5%±14.3% survival (no killing) for the lgtG mutant of 15253).
(§3) Depicted in FIG. 12 is a graph showing survival of N. gonorrhoeae strain 15253 and its lgtG mutant (2C7 epitope negative) (4) exposed to mouse immune serum (67% final mouse immune serum concentration by volume) plus added human complement obtained from normal human donors (17% final human complement concentration by volume).
Strain 15253 lgtG contains a disrupted allele of lipooligosaccharide (LOS) glycosyl transferase G, which transfers glucose (via an α linkage) onto heptose-2 in the core of LOS (4). The disruption of the lgtG locus results in the loss of 2C7 epitope expression.
A standard bactericidal assay was performed to assess complement-mediated bactericidal activity in mouse sera (11). […] Survival was expressed as the percent increase in colonies on the plate at 30 minutes, compared to those on the plate at 0 minutes. […]

[5] = test system: N. gonorrhoeae strain 15253; assay: Complement-mediated bactericidal assay, strain 15253; format: cell-based, Neisseria gonorrhoeae
Procedure: as §2, §3
A standard bactericidal assay was performed to assess complement-mediated bactericidal activity in mouse sera (11). In this assay, mouse serum (67% final volume) (from various mice immunized or not as described below) was incubated with approximately 2.5×10^3 bacteria suspended in Morse A media (33) in the presence of human complement (17% final volume). The reaction mixture was then shaken continuously at 37° C. for 30 minutes. Aliquots of the reaction mixture were then inoculated onto chocolate agar plates at time 0 and 30 minutes. Survival was expressed as the percent increase in colonies on the plate at 30 minutes, compared to those on the plate at 0 minutes. Greater than 100% survival in the assay indicates growth during the 30-minute incubation period.

## IPVLDENGLFAP [PEP1]
mAb 2C7 [1]; peptide 0.1 mg/ml
  percentage inhibition of mAb 2C7 binding to LOS: 17%
mAb 2C7 [1]; peptide 0.5 mg/ml
  percentage inhibition of mAb 2C7 binding to LOS: 77%
mAb 2C7 [1]; peptide 1.0 mg/ml
  percentage inhibition of mAb 2C7 binding to LOS: 91%

## CGPIPVLDENGLFAPGPC [Tetra-MAP1]
mAb 2C7 [2]
  pIC50: 5.90
mAb 2C7 [3]
  binding to mAb 2C7 in direct ELISA (in words): strong binding

## CGPIPVLDENGLFAPGPC [Octa-MAP1]
mAb 2C7 [2]
  pIC50: 6.64
IgG anti-LOS antibody; individual mice, pooled bleeds weeks 7-11
  IgG anti-LOS antibody concentration in serum of immunized mouse: 5.05 µg/mL and 1.38 µg/mL and 2.50 µg/mL
IgG anti-LOS antibody; mice immunized day 0 and day 21, Octa-MAP1 50 μg in Freund's adjuvant
  mice with induced IgG anti-LOS antibody response: three of the eight
IgG anti-LOS antibody; responder mice, 7 and 10 weeks after primary immunization
  IgG anti-LOS antibody levels compared with negative control antigens: higher (p<0.001)
IgG anti-LOS antibody; three responder mice, boost at week 3
  time of peak IgG anti-LOS response: 7 week
mAb 2C7 [3]
  binding to mAb 2C7 in direct ELISA (in words): strong binding
IgM anti-LOS antibody
  IgM anti-LOS antibody response (in words): failed to respond with IgM anti-LOS levels higher than mice immunized with negative control antigens
[4]
  killing/survival of strain 15253 lgtG (in words): survived fully
[5]; serum of immunized mouse containing 1.38 μg/ml anti-LOS antibodies
  killing of strain 15253: 31%
[5]; serum of immunized mouse containing 2.50 μg/ml anti-LOS antibodies
  killing of strain 15253: 74%
[5]; serum of immunized mouse containing 5.05 μg/ml IgG anti-LOS, 67% serum, 17% human complement, 30 min
  killing of strain 15253: 92%
[5]; serum of single immunized mouse (pooled bleeds weeks 7-11), 67% serum, 17% human complement, 30 min
  survival of strain 15253: 8%

## linear PEP1: linear PEP1 peptide compared with the MAPs in inhibition ELISA (IPVLDENGLFAP)
mAb 2C7 [2]
  pIC50: 4.26

## CKSNPIHIIKNRRNIPC (disulfide 1-17 (inferred)) [negative control peptide, reference compound]
mAb 2C7 [1]; peptide 0.1, 0.5 and 1 mg/ml
  inhibition of binding of 2C7 mAb to purified LOS coated plate (in words): did not inhibit binding

## control MAP: control multiple antigen peptide(s), each antigen SEQ ID NO: 12 (CGPEARDEGTITLERGPC; cysteine pairing not given here; also: multiple antigen peptide on lysine core) [reference compound]
mAb 2C7 [2]
  inhibition of mAb 2C7 binding to LOS (in words): no significant inhibition
mAb 2C7 [3]
  binding to mAb 2C7 in direct ELISA (in words): no binding

## unrelated octa-MAP control peptide: unrelated octa-MAP negative control, each antigen SEQ ID NO: 12 (CGPEARDEGTITLERGPC; cysteine pairing not given here; also: octa-MAP on lysine core) [reference compound]
IgG anti-LOS antibody; immunized mice
  IgG anti-LOS response (in words): weak or no IgG anti-LOS responses
[4]
  killing/survival of strain 15253 lgtG (in words): did not kill either strain
[5]; serum of single immunized mouse, 67% serum, 17% human complement
  killing of strain 15253 (in words): did not kill either strain
